The structures appear in SMILES notation.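 Following 48 hours of exposure in 96-well plates, responses at five concentrations were used to interpolate endpoints linearly. GI50 is the concentration that inhibits growth by half. TGI: total growth inhibition.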

Common to all, as to test: growth of human tumour cells (NCI), 48 h
Assay [1] deals with EKVX NSCLC.
Assay [2] deals with HS 578T breast.
For assay [3], the system named is HT29 colon.
In assay [4] the test system is KM12 colon.
Assay [5] deals with OVCAR-8 ovarian.
Assay [6] concerns SF-268 CNS.
Assay [7] relates to SK-MEL-2 melanoma.
Assay [8] deals with SK-MEL-28 melanoma.
The subject of assay [9] is UO-31 renal.
Assay [10] has as its system SR leukemia.

`CN1C(=O)c2c(ccc3c2OCO3)C2C(O)Cc3cc4c(cc3C21)OCO4` (stereo unspecified): the TGI in assay [1] is 60.9 µM; in assay [2], > 100 µM; in assay [3] it was 10.1 µM; in [4], 21.6 µM; in [5] it was 22.9 µM; in assay [6] it was > 100 µM. Besides, the results for the TGI in assay [7], in assay [8] and in assay [9] were 8.44 µM, > 100 µM and > 100 µM, respectively.

For `COc1ccc2c(c1)C(=O)c1c-2n(CCCN)c(=O)c2ccccc12`, the GI50 in [1] is 0.196 µM; in assay [2], 0.649 µM; in [3], < 0.0298 µM; in assay [4] it was 0.0144 µM; in assay [5], 0.0113 µM; in assay [6] it was 0.045 µM. Besides, the GI50 is 0.82 µM in assay [7], 0.459 µM in [8] and 41.7 nM in assay [9]. The TGI in assay [1] was 1.83 µM; in assay [2], 3.09 µM; in assay [3], 0.188 µM; in assay [4], 0.0784 µM; in assay [5], 0.162 µM; in assay [6], 1.09 µM. Further, the TGI was found to be 2.67 µM in assay [7], 1.89 µM in assay [8] and 0.486 µM in assay [9].

Regarding `C=C(Cn1c(=O)c2ccccc2c2ccccc21)c1ccc(C(=O)Nc2ccccc2N)cc1`, the GI50 is > 59.8 µM in assay [1]; 58.2 µM in assay [2]; 13.3 µM in assay [3]; 25.6 µM in assay [4]; 11.8 µM in assay [5]; 12.6 µM in assay [6]. Further, the GI50 in [7] was > 86.3 µM; in assay [8], > 37.8 µM; in assay [9], 2280 nM. The TGI was > 100 µM in [1]; > 100 µM in assay [2]; > 83.8 µM in assay [3]; > 100 µM in assay [4]; > 100 µM in assay [5]; > 100 µM in assay [6]. The TGI in assay [7] was > 100 µM; in [8], > 100 µM; in assay [9] it was > 63.2 µM.

For the compound `O=P([O-])(O)OP(=O)([O-])O.[NH-][C@H]1CCCC[C@@H]1[NH-].[OH-].[OH-].[Pt+4]`, the GI50 was 25.3 µM in assay [1]; 36.1 µM in assay [2]; 59.6 µM in assay [3]; > 100 µM in assay [4]; 22.7 µM in assay [5]; 20.9 µM in assay [6]. Moreover, the values for the GI50 in assay [8] and in assay [9] were 31.5 µM and 19100 nM, respectively. Also, the TGI in assay [1] was 68.3 µM; in assay [2], 93.1 µM; in assay [3], > 100 µM; in assay [4], > 100 µM; in assay [5], 63.6 µM; in assay [6], 46.8 µM. The TGI in [8] is > 100 µM; in assay [9], 44 µM.

On to `COc1cccc([C@H]2CC(=O)c3cc4c(cc3N2)OCO4)c1`, for which the TGI in assay [2] was 83.3 µM; in assay [3], 0.425 µM; in assay [4], 1.25 µM; in [6] it was > 100 µM; in assay [8], > 100 µM; in assay [9] it was > 100 µM. The GI50 in assay [4] was 0.0336 µM; in [6] it was 4.7 µM; in assay [9], 223 nM.

In the case of `CN(C)c1ccc2c(c1)C(=O)N(OS(=O)(=O)c1ccc([N+](=O)[O-])cc1)C2=O`, the TGI in assay [1] was > 100 µM; in assay [3], 47.6 µM; in assay [4], 75.5 µM; in assay [5] it was 61.2 µM; in assay [6] it was 80.8 µM; in [7], 87 µM. The figures for the TGI in assay [8], in assay [10] and in [9] were 63.9 µM, 63.8 µM and 60.9 µM, respectively.

In the case of `NS(=O)(=O)c1ccc(NC(=O)c2ccc(NC3=C(Cl)C(=O)N(Cc4ccccc4)C3=O)cc2)cc1`, the GI50 in assay [1] was 61.9 µM; in assay [2], 1.64 µM; in [3], 5.92 µM; in assay [4], 48.7 µM; in [5] it was 10.2 µM; in [6], 7.25 µM. Besides, the values for the GI50 in [8] and in assay [9] were 4.16 µM and 79300 nM, respectively. The TGI in assay [1] was > 100 µM; in assay [2], 4.5 µM; in [3], 17 µM; in assay [4] it was > 100 µM; in [5] it was > 100 µM; in [6] it was > 100 µM. The TGI in assay [8] and in assay [9] was > 100 µM throughout.

`CCCCCCCCCCCOC(=S)NC(C)C`: the TGI in [1] was 43.3 µM; in assay [3] it was 34.6 µM; in assay [4], 37.7 µM; in assay [5] it was 31.7 µM; in [6], 42.7 µM; in [7] it was 40 µM. Moreover, the TGI in assay [8] was 56.6 µM; in assay [10] it was 44.3 µM; in assay [9], 32.2 µM.

In the case of `C=CC(=O)Nc1ccc(Nc2nccc(-c3ccc(N4CCCC4)c(C#N)c3)n2)cc1`, the GI50 in assay [1] is > 25 µM; in assay [2], 5.15 µM; in assay [3], > 25 µM; in [4], > 25 µM; in [5] it was > 25 µM; in assay [6], 15.8 µM. In addition, the GI50 was 22.7 µM in assay [7], 4 µM in [8] and 1060 nM in [9]. For the same compound, the TGI in assay [1], in assay [2], in assay [3], in [4], in [5] and in assay [6] was > 25 µM in each case. In addition, the TGI in assay [7] is > 25 µM; in assay [8], 13.1 µM; in [9], > 25 µM.

As for `Cc1ccc(C(=O)O/N=C2/CCCC/C2=C\c2ccccc2)cc1`, the TGI was > 100 µM in [1]; > 100 µM in assay [3]; > 100 µM in assay [4]; > 100 µM in assay [5]; 28.2 µM in assay [6]; > 100 µM in assay [7]. Further, the TGI in assay [8] was 65.3 µM; in assay [10] it was > 100 µM; in [9] it was 31.5 µM.

The values are drawn from PubChem BioAssay (NCI).
